Assay results from US20160090351A1, “INHIBITORS OF DEUBIQUITINATING PROTEASES” (BRANDEIS UNIVERSITY, priority 2013, published 2016).

Tests used:
B16/F10 cells = assay: proliferation and cell cycle of B16/F10 cells; assay type: cell-based, mouse
Description: A. MCF7 cells were treated with C17 for 4 h and Mdm2 levels were measured. B. As in A, P53 measured. C. As in A, P21 measured. D. MCF7 and B16/F10 cells were treated with C17 every 24 hours. After 72 hours, the number of viable cells was measured by Alamar Blue®.
MCF7 cells were dosed every 2 hours with the indicated concentration of C15. After 6 hours, cells were lysed by freeze thaw and then sonicated in 0.5% SDS. A. Total lysates were blotted for K48-linked ubiquitin and actin. B. Normalized K48-linked ubiquitin signal was plotted as a function of concentration of C15 (N=2). C. […] Doxorubicin (Dox) is a DNA damaging agent that serves as a positive control for the induction of P53. D. Quantitation of P53 levels in C relative to actin (N=2). […] MCF7 cells were treated under the stated conditions then analyzed for cell cycle. F. DMSO treated cells. G. Cells treated with C17 (25 μM), dosed every 24 hours. H. Cells treated with C17 (50 μM), dosed every 24 hours. […] These cells were left for 72 h (single dose) after which time the total number of viable cells was analyzed using Alamar Blue®. All data are n≧4 showing mean+/−s.e.m. K. MCF7 cells were plated with C17 for 24 hours after which time the total number of viable cells was measured by Alamar Blue®. L. B16/F10 cells were treated with DMSO, C17 or P005091 for 72 h. […] After this time, cells were analyzed by flow cytometry.
All cells were grown at 37° C. in a 5% CO2 humidified atmosphere in DMEM supplemented with 10% heat inactivated FBS, 1× glutamax, and 1× penicillin/streptomycin. […] Typically clarified lysate was analyzed. […] Lysates were centrifuged (20 000 rpm, microcentrifuge, Eppendorf 5417 C) concentration was measured, then 0.1% SDS was added and lysates were sonicated for a total of 30 s (in 10 s bursts). Protein concentration was determined using Bradford assay with IgG as standard and analyzed by western blot as delineated below {[9 μg total protein for K48-linked ubiquitin (1:9000 antibody dilution), SMAD4 (1:500) or PARP (1:1000)]; [30-40 μg was loaded for K63-linked ubiquitin (1:1500), Mdm2 (1:1000) or Abl (1:1500). […]

Description for MCF7 cells: MCF7 cells were dosed every 2 hours with the indicated concentration of C15. After 6 hours, cells were lysed by freeze thaw and then sonicated in 0.5% SDS. […] MCF7 cells were treated under the stated conditions then analyzed for cell cycle. […] G. Cells treated with C17 (25 μM), dosed every 24 hours. H. Cells treated with C17 (50 μM), dosed every 24 hours. […] These cells were left for 72 h (single dose) after which time the total number of viable cells was analyzed using Alamar Blue®. All data are n≧4 showing mean+/−s.e.m. K. MCF7 cells were plated with C17 for 24 hours after which time the total number of viable cells was measured by Alamar Blue®.
All cells were grown at 37° C. in a 5% CO2 humidified atmosphere in DMEM supplemented with 10% heat inactivated FBS, 1× glutamax, and 1× penicillin/streptomycin. […] Proliferation assays were conducted by plating cells at 5% confluence in 96 well plates together with compound or 0.1% DMSO. Cells were allowed to grow for 72 hours (a 24 h dosing regimen was used for carbonate compounds) and then Alamar Blue® was added and number of cells was measured by fluorescence on a microplate reader.

Structure (SMILES): NCc1ccc(OC(=O)Oc2ccc3ccccc3c2)cc1 [Compound C17]
- cytotoxicity after single dose, 72 h (MCF7 cells): no cytotoxicity was observed
- decrease of cell viability (MCF7 cells): 50%
- cell cycle distribution (B16/F10 cells; 72 h, flow cytometry): decrease in cells in G1 phase and an increase in G2
- proliferation (B16/F10 cells; 72 hours, dosed every 24 hours): inhibited proliferation in B16/F10 cells
